Experimental data taken from US3969521A, “Pharmaceutical compositions containing tetrahydroalstonine and method for treating circulation disorders” (Science Union et Cie, Societe Francaise de Recherche Medical, priority 1974, dated 1976).
“Also recorded” adds a separate entry of the source.

Experiments:
[1] = tested on: recovery of learned memories; experiment: Recovery of learned memories after electroshock (aquatic maze crossing); type: in vivo, rat; details: for effect on the recovery of learned memory: rat, in vivo
Text: Effects of tetrahydroalstonine on the recovery of learned memories on rats.
Tetrahydroalstonine has been tested on lots of rats in order to determine how fast it allows the recovery of learned memories after supramaximal electroshock in comparision with Vincamine and Papaverine. These last compounds are known to be active on the circulation namely as vasodilating agents.
In this test, as described by C. Giurgea (J. Pharmacol. (Paris) 3 17 (1972)), the rats are submitted to a submaximal electroshock which causes a spatio-temporal desorientation. This syndrom is evidenced by the difficulties the tested animals encountered for crossing over a maze filled with cold water without any error, after they have been submitted to the electroshock. The rats have been previously trained to swimm through this maze and the training has been renewed four times for 2 days.
The electric shock was delivered by means of a Neurovar apparatus (ALVAR Electronics) the third day. 20 Minutes after the electro shock, each lot of rats is tested and the time for crossing over the maze is determined. Immediately after, the rats received the compound to be tested by intra oesophageal tubing. Each lot is then experienced four times, 1, 2, 3, and 4 hours after the electroshock.
The score of performances of each individual is recorded and every error during the crossing over noticed.
The compounds to be tested (papaverine, vincamine and tetrahydroalstonine) are given to the animals, suspended in an aqueous solution of carboxymethylcellulose and sorbitan monooleate.
Papaverine and vincamine were administered at dosis ranging from 1 to 20 mg/kg. Tetrahydroalstonine was administered at a dosis of 0.6 mg/kg, 6 mg/kg and 60 mg/kg.
A lot of rats received only the aqueous solvent under the same volume (0.5 ml/100 g animal) as controls.
Therein are reported for each lot of rats the number of errors and the average time for crossing over the maze during the 5 tests performed after the animals have been subjected to the electroshock.
The treatment has been given 20 mn after the electroshock, immediately
after the first crossing over

central nervous system = experiment: Effects on the central nervous system; type: in vivo
[2] = tested on: analgetic effect of Morphine; experiment: Analgetic effect of Morphine; details: in vivo
[3] = 10 mg/kg P.O., 20 minutes (before treatment)
[4] = 10 mg/kg P.O., 20 minutes after electroshock (before treatment)
[5] = 20 mg/kg P.O., 20 minutes (before treatment)
[6] = 20 mg/kg P.O., 20 minutes after electroshock (before treatment)

Compound: COc1ccc(Cc2nccc3cc(OC)c(OC)cc23)cc1OC [Papaverine]
- time after which improvement in performance appeared statistically significant ([1]; 10 mg/kg): 240 mn
- a = variation of average number of errors as regard as the controls [1, 3]: +
- E = average number of errors [1, 4]: 14,3
- T = average time for crossing over [1, 4]: 154,2 seconds
- E = average number of errors ([1]; 10 mg/kg P.O., 60 minutes): 7,3
- T = average time for crossing over ([1]; 10 mg/kg P.O., 60 minutes): 75,5 seconds
- a = variation of average number of errors as regard as the controls ([1]; 10 mg/kg P.O., 60 minutes): -
- E = average number of errors ([1]; 10 mg/kg P.O., 120 minutes): 4,8
- T = average time for crossing over ([1]; 10 mg/kg P.O., 120 minutes): 54,2 seconds
- a = variation of average number of errors as regard as the controls ([1]; 10 mg/kg P.O., 120 minutes): -
- E = average number of errors ([1]; 10 mg/kg P.O., 180 minutes): 4,7
- T = average time for crossing over ([1]; 10 mg/kg P.O., 180 minutes): 49,0 seconds
- a = variation of average number of errors as regard as the controls ([1]; 10 mg/kg P.O., 180 minutes): -
- E = average number of errors ([1]; 10 mg/kg P.O., 240 minutes): 2,4
- T = average time for crossing over ([1]; 10 mg/kg P.O., 240 minutes): 25,4 seconds
- a = variation of average number of errors as regard as the controls ([1]; 10 mg/kg P.O., 240 minutes): -
- b = statistical value (student's test), number of errors ([1]; 10 mg/kg P.O., 240 minutes): 0,0005
- effect on the recovery of learned memory (onset) ([1]; 20 mg/kg): delayed
- time after which improvement in performance appeared statistically significant ([1]; 20 mg/kg): 180 mn
- a = variation of average number of errors as regard as the controls [1, 5]: +
- E = average number of errors [1, 6]: 14,0
- T = average time for crossing over [1, 6]: 150,7 seconds
- E = average number of errors ([1]; 20 mg/kg P.O., 60 minutes): 10,4
- T = average time for crossing over ([1]; 20 mg/kg P.O., 60 minutes): 89,8 seconds
- a = variation of average number of errors as regard as the controls ([1]; 20 mg/kg P.O., 60 minutes): +
- E = average number of errors ([1]; 20 mg/kg P.O., 120 minutes): 5,6
- T = average time for crossing over ([1]; 20 mg/kg P.O., 120 minutes): 53,4 seconds
- a = variation of average number of errors as regard as the controls ([1]; 20 mg/kg P.O., 120 minutes): -
- E = average number of errors ([1]; 20 mg/kg P.O., 180 minutes): 2,9
- T = average time for crossing over ([1]; 20 mg/kg P.O., 180 minutes): 29,7 seconds
- a = variation of average number of errors as regard as the controls ([1]; 20 mg/kg P.O., 180 minutes): -
- b = statistical value (student's test), number of errors ([1]; 20 mg/kg P.O., 180 minutes): 0,005
- E = average number of errors ([1]; 20 mg/kg P.O., 240 minutes): 3,0
- T = average time for crossing over ([1]; 20 mg/kg P.O., 240 minutes): 32,8 seconds
- a = variation of average number of errors as regard as the controls ([1]; 20 mg/kg P.O., 240 minutes): -
- b = statistical value (student's test), number of errors ([1]; 20 mg/kg P.O., 240 minutes): 0,01
- effect on the recovery of learned memory [1]: improving effect

Compound: COC(=O)C1=CO[C@@H](C)[C@H]2CN3CCc4c([nH]c5ccccc45)[C@@H]3C[C@H]12 [Raubasine, reference compound]
- effect on the central nervous system (central nervous system; 50 to 100 mg/kg perorally): merely a sedative
- effect on the central nervous system (central nervous system; dosage not stated): merely endowed with sedative properties
- effect on the analgetic effect of Morphine [2]: does not exert such effect; also recorded: does not increase the analgetic effects of morphine

Compound: CC[C@]12CCCN3CCc4c(n(c5ccccc45)[C@@](O)(C(=O)OC)C1)[C@@H]32 [Vincamine]
- number of mistakes ([1]; 10 mg/kg): did not show any decrease in the number of mistakes
- a = variation of average number of errors as regard as the controls [1, 3]: -
- E = average number of errors [1, 4]: 10,8
- T = average time for crossing over [1, 4]: 135,6 seconds
- E = average number of errors ([1]; 10 mg/kg P.O., 60 minutes): 7,2
- T = average time for crossing over ([1]; 10 mg/kg P.O., 60 minutes): 82,7 seconds
- a = variation of average number of errors as regard as the controls ([1]; 10 mg/kg P.O., 60 minutes): -
- E = average number of errors ([1]; 10 mg/kg P.O., 120 minutes): 4,6
- T = average time for crossing over ([1]; 10 mg/kg P.O., 120 minutes): 44,1 seconds
- a = variation of average number of errors as regard as the controls ([1]; 10 mg/kg P.O., 120 minutes): -
- E = average number of errors ([1]; 10 mg/kg P.O., 180 minutes): 5,6
- T = average time for crossing over ([1]; 10 mg/kg P.O., 180 minutes): 52,8 seconds
- a = variation of average number of errors as regard as the controls ([1]; 10 mg/kg P.O., 180 minutes): +
- E = average number of errors ([1]; 10 mg/kg P.O., 240 minutes): 4,3
- T = average time for crossing over ([1]; 10 mg/kg P.O., 240 minutes): 38,6 seconds
- a = variation of average number of errors as regard as the controls ([1]; 10 mg/kg P.O., 240 minutes): -
- performances ([1]; 10 mg/kg, after 2 hours): slight improvement
- effect on the recovery of learned memory (onset) ([1]; 20 mg/kg): delayed
- start of the improving effect after the administration ([1]; 20 mg/kg): 40 min
- start of the improving effect after the electroshock ([1]; 20 mg/kg): 60 mn
- a = variation of average number of errors as regard as the controls [1, 5]: +
- E = average number of errors [1, 6]: 14,3
- T = average time for crossing over [1, 6]: 124,5 seconds
- E = average number of errors ([1]; 20 mg/kg P.O., 60 minutes): 7,1
- T = average time for crossing over ([1]; 20 mg/kg P.O., 60 minutes): 58,4 seconds
- a = variation of average number of errors as regard as the controls ([1]; 20 mg/kg P.O., 60 minutes): -
- E = average number of errors ([1]; 20 mg/kg P.O., 120 minutes): 5,2
- T = average time for crossing over ([1]; 20 mg/kg P.O., 120 minutes): 38,2 seconds
- a = variation of average number of errors as regard as the controls ([1]; 20 mg/kg P.O., 120 minutes): -
- E = average number of errors ([1]; 20 mg/kg P.O., 180 minutes): 2,5
- T = average time for crossing over ([1]; 20 mg/kg P.O., 180 minutes): 22,1 seconds
- a = variation of average number of errors as regard as the controls ([1]; 20 mg/kg P.O., 180 minutes): -
- b = statistical value (student's test), number of errors ([1]; 20 mg/kg P.O., 180 minutes): 0,0005
- E = average number of errors ([1]; 20 mg/kg P.O., 240 minutes): 3,2
- T = average time for crossing over ([1]; 20 mg/kg P.O., 240 minutes): 24,2 seconds
- a = variation of average number of errors as regard as the controls ([1]; 20 mg/kg P.O., 240 minutes): -
- b = statistical value (student's test), number of errors ([1]; 20 mg/kg P.O., 240 minutes): 0,025
- number of mistakes ([1]; 20 mg/kg, 3 and 4 hours after the electroshock): significantly decreased
- effect on the recovery of learned memory [1]: improving effect
